molecular target: RIPK1 recombination protein (Homo sapiens (Human), UniProt Q13546); assay: RIPK1 kinase activity assay (ADP-Glo); format: biochemical; details: RIPK1 kinase activity, ADP-Glo, 10 μM ATP
Experimental: RIPK1 recombination protein: synthesized by Shanghai Medicilon Inc. under the commission by Hutchison MediPharma Limited (50 g of cell pellet was resuspended in 250 mL of lysis buffer (50 mM Tris, pH 7.5, 250 mM NaCl, 1 mM DTT, protease inhibitor 1:50), the cells were ultrasonically lysed using a sonicator (the power set to 4) on ice for 3×30 minutes; then centrifugation was carried out at 4° C., at 15,000 g for 30 minutes to clarify the suspension, the soluble pellet was resuspended into 10 mL of glutathione agarose, and incubated at 4° C. for 2 hours; then the beads were loaded into the column and washed with lysis buffer (no protease inhibitors) to baseline, and eluted with 20 mM of reduced glutathione (50 mM Tris, pH 8). The fractions identified by SDS-PAGE as containing the protein of interest were collected (10 mL of total volume), concentrated to about 5 mL and loaded into 300 mL superdex75 column (GE Healthcare) equilibrated with buffer (50 mM Tris, pH 7.5, 150 mM NaCl, 1 mM DTT, 10% glycerol, pH 7.5). RIP1 protein was eluted as a dimer from the superdex75 column. The protein concentration was determined by the Bradford assay using BSA as the standard. The yield was 12.5 mg at 0.63 mg/mL. The protein was aliquoted and frozen at −80° C. for later use.
ADP-Glo Kinase kit can be used to measure ADP level in kinase activity assay so as to distinguish the inhibitory effects of different compounds on RIPK1 kinase activity. The ADP-Glo assay was usually divided into three steps. Firstly, the kinase converted ATP to ADP and phosphorylated the substrate at the same time; secondly, ATP digestion reagent was added to degrade all ATP in the reaction system; finally, a detection reagent was added to reduce ADP to ATP, and energy from ATP was transferred to […] which thus emitting a chemical luminescence that can be detected. Assay procedure can refer to manufacture's technical manual.
(2) Reagent Preparation: • 1.33× kinase buffer: 5× kinase buffer stock (250 mM of NaCl, 150 mM of MgCl2, 2.5 mg/ml BSA (bovine serum albumin), 0.1% CHAPS (3-[(3-cholamidopropyl)-dimethyl-ammonio]-1-propane sulfonate), and 5 mM of dithiothreitol) was diluted with water to 1.33× kinase buffer; • RIPK1 enzyme solution: the kinase was dissolved in 1.33× kinase buffer to make 40 nM as the final working concentration; • ATP solution: 10 mM ATP stock solution in water was dissolved in 1.33× kinase buffer to make 10 μM as the final working concentration; • 4× compound preparation: the compound was diluted in a 3-fold gradient, and finally 4% DMSO aqueous solution containing different concentrations of the compound was obtained. The final concentrations of the test compound were 10, 3.33, 1.11, 0.37, 0.12, 0.04, 0.014, and 0.005 μM.
The assay set up two control groups, one was 100% inhibition group (no enzyme treatment), another was 0% inhibition group (no inhibitor treatment), each control group contained 8 replicate wells. 2.5 μl of serially diluted compound was added to each well of a 384-well plate, with double replicate wells, and 4% DMSO solution was added to control wells. Then 5 μl of RIPK1 enzyme solution was added to each well except 100% inhibition control, 5 ul of buffer was added to 100% inhibition control, after that, 2.5 μl of ATP solution was added to all wells, the plate was vibrated at 1000 rpm for 30 seconds to perform transient centrifuge; finally the 384-well assay plate was put in the shaking incubator, and incubated at room temperature for 3 hours. After the enzymatic reaction was completed, 5 μl of ATP depletion reagent was added to each well, the mixture was centrifuged transiently, then the 384-well assay plate was put in the shaking incubator, and incubated at room temperature for 1 hour. 5 μl of ADP detection reagent was added to each well, and the mixture was centrifuged transiently, and incubated at room temperature for 0.5 hour. […]

Chain of RIPK1 recombination protein (Q13546 other isoform, or with tags, fused parts or gaps): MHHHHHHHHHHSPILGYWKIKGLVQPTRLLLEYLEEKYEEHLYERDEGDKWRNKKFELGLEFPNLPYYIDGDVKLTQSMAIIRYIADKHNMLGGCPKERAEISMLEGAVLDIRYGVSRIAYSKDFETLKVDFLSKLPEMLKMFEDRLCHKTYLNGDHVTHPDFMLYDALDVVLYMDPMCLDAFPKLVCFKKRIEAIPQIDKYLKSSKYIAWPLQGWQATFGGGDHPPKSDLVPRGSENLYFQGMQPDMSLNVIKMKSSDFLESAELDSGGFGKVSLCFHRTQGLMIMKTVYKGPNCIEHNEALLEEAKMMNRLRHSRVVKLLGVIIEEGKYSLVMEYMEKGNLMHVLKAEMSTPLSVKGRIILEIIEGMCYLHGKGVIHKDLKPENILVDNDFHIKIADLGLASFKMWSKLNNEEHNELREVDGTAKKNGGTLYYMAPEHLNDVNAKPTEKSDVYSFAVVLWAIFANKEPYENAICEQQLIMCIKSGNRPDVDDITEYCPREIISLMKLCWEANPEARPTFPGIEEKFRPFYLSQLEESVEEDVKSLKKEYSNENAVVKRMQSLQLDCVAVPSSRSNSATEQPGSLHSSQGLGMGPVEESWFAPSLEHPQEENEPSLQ

Structure (SMILES) | IC50 [nM]
CC(C)n1cncc(-c2ccc(C3(NC(=O)c4ncc5cnn(C(C)C6CC6)c5n4)CC3)cc2)c1=O (racemic) [Compound 59, 1-(1-cyclopropylethyl)-N-(1-(4-(1-i-propyl-6-oxo-1,6-dihydropyrimidin-5-yl)phenyl)cyclopropyl)-1H-pyrazolo[3,4-d]pyrimidine-6-carboxamide] | 26
CC(C)n1ncc2cnc(C(=O)NC3(c4ccc(-c5cncn([C@H](C)C(F)(F)F)c5=O)cc4F)CC3)nc21 (stereo in doubt) [Compound 46] | 35
CC(C)n1ncc2cnc(C(=O)NC3(c4ccc(-c5cncn([C@@H](C)C(F)(F)F)c5=O)cc4F)CC3)nc21 (stereo in doubt) [Compound 47] | 29
CC(C)n1ncc2cnc(C(=O)NC3(c4ccc(-c5cncn(C6CCOC6)c5=O)cc4)CC3)nc21 (stereo in doubt) [Compound 80, (R)-1-i-propyl-N-(1-(4-(6-oxo-1-(tetrahydrofuran-3-yl)-1,6-dihydropyrimidin-5-yl)phenyl)cyclopropyl)-1H-pyrazolo[3,4-d]pyrimidine-6-carboxamide] | 42
CC(C)n1ncc2cnc(C(=O)NC3(c4ccc(-c5cncn(C6CCOC6)c5=O)cc4)CC3)nc21 (stereo in doubt) [Compound 81, (S)-1-i-propyl-N-(1-(4-(6-oxo-1-(tetrahydrofuran-3-yl)-1,6-dihydropyrimidin-5-yl)phenyl)cyclopropyl)-1H-pyrazolo[3,4-d]pyrimidine-6-carboxamide] | 39
CC(C#N)n1cncc(-c2ccc(C3(NC(=O)c4ncc5cnn(C(C)C)c5n4)CC3)cc2)c1=O (stereo in doubt) [Compound 82, (R)—N-(1-(4-(1-(1-cyanoethyl)-6-oxo-1,6-dihydropyrimidin-5-yl)phenyl)cyclopropyl)-1-i-propyl-1H-pyrazolo[3,4-d]pyrimidine-6-carboxamide] | 51
CC(C#N)n1cncc(-c2ccc(C3(NC(=O)c4ncc5cnn(C(C)C)c5n4)CC3)cc2)c1=O (stereo in doubt) [Compound 83, (S)—N-(1-(4-(1-(1-cyanoethyl)-6-oxo-1,6-dihydropyrimidin-5-yl)phenyl)cyclopropyl)-1-i-propyl-1H-pyrazolo[3,4-d]pyrimidine-6-carboxamide] | 47
CC(C)n1ncc2cnc(C(=O)NC3(c4ccc(-c5cncn(C)c5=O)cc4)CC3)nc21 [Compound 1, 1-isopropyl-N-(1-(4-(1-methyl-6-oxo-1,6-dihydropyrimidin-5-yl)phenyl)cyclopropyl)-1H-pyrazolo[3,4-d]pyrimidine-6-carboxamide] | 28
CC(C)n1ncc2cnc(C(=O)NC3(c4ccc(-c5cncn(C)c5=O)cn4)CC3)nc21 [Compound 2] | 63
Cn1cncc(-c2ccc(C3(NC(=O)c4nnc(Cc5ccccc5)[nH]4)CC3)cc2)c1=O [Compound 3] | 35
Cn1cncc(-c2ccc(C3(NC(=O)c4ncc5cnn(-c6ccccc6)c5n4)CC3)cc2)c1=O [Compound 4] | 26
Cn1cncc(-c2ccc(C3(NC(=O)c4cc(Cc5ccccc5)on4)CC3)cc2)c1=O [Compound 5] | 57
CC(C)Cc1nc(C(=O)NC2(c3ccc(-c4cncn(C)c4=O)cc3)CC2)ncc1Cl [Compound 6] | 56
Cn1cncc(-c2ccc(C3(NC(=O)c4ncn(Cc5ccccc5)n4)CC3)cc2)c1=O [Compound 8] | 22
Cn1cncc(-c2ccc(C3(NC(=O)c4noc(Cc5ccccc5)n4)CC3)cc2)c1=O [Compound 9] | 37
Cn1cncc(-c2ccc(C3(NC(=O)c4ncc(Cc5ccccc5)o4)CC3)cc2)c1=O [Compound 10] | 26
Cn1cncc(-c2ccc(C3(NC(=O)c4nnc(Cc5ccccc5)o4)CC3)cc2)c1=O [Compound 11] | 38
CC(C)n1ncc2cnc(C(=O)NC3(c4ccc(-c5cncn(C6CC6)c5=O)cc4)CC3)nc21 [Compound 12] | 9
CC(C)n1cncc(-c2ccc(C3(NC(=O)c4nnc(Cc5ccccc5)o4)CC3)cc2)c1=O [Compound 13] | 22
CC(C)n1cncc(-c2ccc(C3(NC(=O)c4nc5n(n4)[C@@H](c4ccccc4)CC5)CC3)cc2)c1=O [Compound 15] | 30

Structure (SMILES) | IC50 [nM]
CC(C)n1cncc(-c2ccc(C3(NC(=O)c4nc5n(n4)[C@H](c4ccccc4)CC5)CC3)cc2)c1=O [Compound 16] | 25
CC(C)n1cncc(-c2ccc(C3(NC(=O)c4ncn(Cc5ccccc5)n4)CC3)cc2)c1=O [Compound 17] | 15
Cn1cncc(-c2ccc(C3(NC(=O)c4nnc(Cc5c(F)cccc5F)[nH]4)CC3)cc2)c1=O [Compound 18] | 38
CC(C)n1cncc(-c2ccc(C3(NC(=O)c4ncc5cnn(-c6ccccc6)c5n4)CC3)cc2)c1=O [Compound 19] | 71
CC(C)Cc1nc(C(=O)NC2(c3ccc(-c4cncn(C(C)C)c4=O)cc3)CC2)ncc1Cl [Compound 22] | 55
CC(C)n1ncc2cnc(C(=O)NC3(c4ccc(-c5cncn(C)c5=O)c(F)c4)CC3)nc21 [Compound 23, N-(1-(3-fluoro-4-(1-methyl-6-oxo-1,6-dihydropyrimidin-5-yl)phenyl)cyclopropyl)-1-isopropyl-1H-pyrazolo[3,4-d]pyrimidine-6-carboxamide] | 49
CC(C)n1ncc2cnc(C(=O)NC3(c4ccc(-c5cncn(C)c5=O)c(Cl)c4)CC3)nc21 [Compound 25] | 53
CC(C)n1ncc2cnc(C(=O)NC3(c4ccc(-c5cncn(C)c5=O)cc4F)CC3)nc21 [Compound 26] | 22
CC(C)n1ncc2cnc(C(=O)NC3(c4ccc(-c5cncn(C)c5=O)cc4)CC3)cc21 [Compound 28, 1-isopropyl-N-(1-(4-(1-methyl-6-oxo-1,6-dihydropyrimidin-5-yl)phenyl)cyclopropyl)-1H-pyrazolo[4,3-c]pyridine-6-carboxamide] | 95
CC(C)n1cncc(-c2ccc(C3(NC(=O)c4ncc5cnn(C(C)C)c5n4)CC3)cc2)c1=O [Compound 29, 1-isopropyl-N-(1-(4-(1-isopropyl-6-oxo-1,6-dihydropyrimidin-5-yl)phenyl)cyclopropyl)-1H-pyrazolo[3,4-d]pyrimidine-6-carboxamide] | 19
CC(C)n1ncc2cnc(C(=O)NC3(c4ccc(-c5cnc(N)n(C)c5=O)cc4)CC3)nc21 [Compound 30] | 35
CC(C)n1cncc(-c2ccc(C3(NC(=O)c4ncc5cnn(C(C)C)c5n4)CC3)cc2Cl)c1=O [Compound 33] | 59
CC(C)n1cncc(-c2ccc(C3(NC(=O)c4ncc5cnn(C(C)C)c5n4)CC3)c(F)c2)c1=O [Compound 34] | 65
CC(C)n1cncc(-c2ccc(C3(NC(=O)c4ncc5cnn(C(C)C)c5n4)CC3)cc2F)c1=O [Compound 35] | 47
CC(C)n1ncc2cnc(C(=O)NC3(c4ccc(-c5cncn(CC6CC6)c5=O)cc4)CC3)nc21 [Compound 36] | 42
CCn1cncc(-c2ccc(C3(NC(=O)c4ncc5cnn(C(C)C)c5n4)CC3)cc2)c1=O [Compound 37] | 41
CC(C)n1ncc2cnc(C(=O)NC3(c4ccc(-c5cncn(CC(F)(F)F)c5=O)cc4)CC3)nc21 [Compound 38] | 48
CC(C)n1ncc2cnc(C(=O)NC3(c4ccc(-c5cncn([C@H](C)C(F)(F)F)c5=O)cc4)CC3)nc21 [Compound 39] | 59
CC(C)n1ncc2cnc(C(=O)NC3(c4ccc(-c5cncn([C@@H](C)C(F)(F)F)c5=O)cc4)CC3)nc21 [Compound 40] | 52

Reference: US20240002388A1, “PYRIMIDINONE COMPOUNDS AND USES THEREOF” (HUTCHISON MEDIPHARMA LIMITED, priority 2020, published 2024)
